From patent US8519002B2, “Colchicine solid complex; methods of making; and methods of use thereof” (Takeda Pharmaceuticals U.S.A., Inc., priority 2008, dated 2013)

Tests used:
[1] = 40° C./75% RH; for XRPD of stressed sample (solid form after stress): 4 days, result in words
[2] = for hygroscopicity suggested by DVS data: 5% to 95% RH; for weight gain observed on the sorption step: DVS whole sorption step
Experimental: Samples ae not dried prior to analysis. Equilibrium criteria used for analysis were less than 0.0100% weight change in 5 minutes, with a maximum equilibration time of 3 hours if the weight criterion was not met. Data are not corrected for the initial moisture content of the samples. Sodium chloride and polyvinypyrrolidine are used as calibration standards.

[3] = DVS desorption, result in words

SMILES | net weight gain after 4 days [1] | XRPD of stressed sample (solid form after stress) [1] | hygroscopicity suggested by DVS data ([2]; result in words) | weight loss from 95 to 5% RH ([2]; DVS desorption) | weight gain from 5 to 95% RH ([2]; DVS sorption, 5 to 95% RH) | weight loss upon equilibration at 5% RH ([2]; DVS sorption, equilibration at 5% RH) | weight gain observed on the sorption step [2] | net weight loss after sorption and desorption ([2]; DVS, desorption versus sorption) [%] | weight loss from 75 to 5% RH ([2]; DVS desorption, 75 to 5% RH) | weight loss from 95 to 75% RH ([2]; DVS desorption, 95 to 75% RH) | hysteresis upon desorption [2, 3] | weight gain from 5 to 75% RH ([2]; DVS sorption) | weight gain from 75 to 95% RH ([2]; DVS sorption, 75 to 95% RH (above 75% RH)) | Post DVS XRPD (solid form after DVS) ([2]; XRPD of sample after DVS) | net weight loss after 4 days [1] | behaviour of material in DVS (deliquescence) ([2]; DVS, upon desorption, result in words)
COc1cc2c(c(OC)c1OC)-c1ccc(OC)c(=O)cc1[C@@H](NC(C)=O)CC2.Cc1ccc(S(=O)(=O)O)cc1 | approximately 1.0% | unchanged | not significantly hygroscopic | 0.5% weight loss from 95 to 5% RH | 0.4% weight gain from 5 to 95% RH | 0.01% weight loss upon equilibration at 5% RH | ~0.4% | ~0.01 |  |  |  |  |  |  |  | 
COc1cc2c(c(OC)c1OC)-c1ccc(OC)c(=O)cc1[C@@H](NC(C)=O)CC2.O=C(O)C[C@H](O)C(=O)O [colchicine malic acid co-crystal] | approximately 5.4% | remains unchanged | hygroscopic |  |  |  | approximately 22% |  | 9.6% weight loss from 75 to 5% RH | 15.0% weight loss from 95 to 75% RH | no hysteresis | 6.2% weight gain from 5 to 75% RH | 15.6% weight gain from 75 to 95% RH | Colchicine malic acid co-crystal |  | 
COc1cc2c(c(OC)c1OC)-c1ccc(OC)c(=O)cc1[C@@H](NC(C)=O)CC2.COc1cc2c(c(OC)c1OC)-c1ccc(OC)c(=O)cc1[C@@H](NC(C)=O)CC2.O=C(O)C(=O)O [colchicine oxalic acid co-crystal] |  | colchicine oxalic acid co-crystal, but minor disorder and shifting of the peaks is observed | hygroscopic | 15.2% weight loss from 95 to 5% RH |  |  |  |  |  |  | Significant hysteresis | 0.5% weight gain from 5 to 75% RH |  |  | approximately 6.7% | deliquesces
